Results as given in patent publication US11369625B2, “Anti-tumor agent, anti-tumor effect enhancer, and anti-tumor kit” (FUJIFILM Corporation, priority 2017, dated 2022).

How the values were obtained:
tumor = settings: oral administration to mice; cited from earlier work
[1] = test system: human pancreatic cancer cell line Capan-1; assay: Combinational effect test in Capan-1 subcutaneously implanted tumor-bearing model mouse (anti-tumor effect); type: in vivo, BALB/cA Jcl-nu mice; parameters: key to vs. control: * statistically significant; settings: for T/C (%): average RTV of treated group / average RTV of control group x 100, Day 33; for GC (%): growth of control, calculated from RTV at Day 33; for RTV (mean ± standard deviation): relative tumor volume, TV at Day 33 / TV at Day 1, tail vein once a week, three times, n=8; for vs. control: statistical significance of RTV vs. control group, Day 33
Experimental: Combinational effect test in Capan-1 subcutaneously implanted tumor-bearing model mouse
Gemcitabine (hereinafter, also referred to as Gem), Abraxane (hereinafter, also referred to as Abx), and methanesulfonate of Compound A were used as test substances.
Gemcitabine was prepared by dissolving gemcitabine hydrochloride (manufactured by Teva Pharmaceutical Industries Limited) in physiological saline. Abraxane was prepared by dissolving Abraxane (manufactured by Celgene Corporation) in physiological saline.
Capan-1 cell, a human pancreatic cancer cell line, was subcutaneously injected into the posterior flank of 5 to 6-week old female BALB/cA Jcl-nu mice. After tumor implantation, the major diameter (mm) and minor diameter (mm) of the tumor were measured, and the tumor volume (TV) was calculated. Mice were assigned to each group so that the average TV of each group was equal, and the day on which this grouping (n=8) was carried out was taken as Day 1.
The test liquid in Abraxane alone group was prepared to be 30 mg/kg/day as the administration dose. In addition, the test liquid in Compound A alone group was prepared to be 480 mg/kg/day. Compound A was administered from the mouse tail vein a total of three times from Day 1 once a week, and Abraxane was similarly administered from the mouse tail vein a total of three times from Day 1 once a week. In the combined administration group, Compound A was administered at 480 mg/kg/day and Abraxane was administered at 30 mg/kg/day.
As a comparative experiment, gemcitabine was used as a control. The test liquid of gemcitabine alone group was prepared to be 240 mg/kg/day. Gemcitabine was administered from the mouse tail vein a total of three times from Day 1 once a week. In the combined administration group, gemcitabine was administered at 240 mg/kg/day and Abraxane was administered at 30 mg/kg/day.
In this test, doses of Compound A and gemcitabine were set using MTD of each drug. Abraxane was used at the maximum dose usable in combination with each drug. […] In this test example, the MTD and the maximum effect dose are almost synonymous.
As an index of anti-tumor effect, TV at Day 33 was measured in each drug administration group. According to the following equation, a relative tumor volume (RTV) with respect to Day 1 and T/C (%) were calculated to evaluate the anti-tumor effect. […] TV (mm^3)=(major diameter×minor diameter^2)/2 RTV=(TV at Day 33)/(TV at Day 1) T/C (%)=[(average RTV value of test liquid administered group)/(average RTV value of control group)]×100
On the combinational effect of the present invention, the results of evaluation using a combination index (CI) which is a quantitative index of the combinational effect are shown. The CI can be calculated by the following equation according to Cancer Research, 2010, Vol. 70, pp. 440 to 446.
That is, in the case where the drugs to be used in combination are drugs 1 and 2, CI=(T/C at the time of combination use)÷100/{[(T/C of drug 1)÷100]×[(T/C of drug 2)÷100]} CI=1: additive effect CI>1: antagonistic effect CI<1: synergistic effect
In addition, on the combinational effect of the present invention, the results of evaluation using a tumor growth inhibitory effect (growth of control (GC)) are shown. For the evaluation method, the same method as in B of FIG. 5 of Molecular Cancer Therapeutics, 2013, Vol. 12, pp. […] was used.
As described in the above document, the GC can be calculated by the following equation. In the case where RTV>1 GC (%)=[(corresponding drug RTV-1)/(control RTV-1)]×100 [1] In the case where RTV≤1 GC (%)=(corresponding drug RTV-1)×100 [2]
Combinational effect was estimated from the drug efficacy with Abraxane and Compound A or gemcitabine alone by the following calculation equation. The estimated combination use GC (%)=[GC (%) of Abraxane×drug alone GC (%)]÷100

SMILES | anti-tumor activity (tumor) | enhancement of anti-tumor effect in combination use ([1]; Compound A 480 mg/kg/day with Abraxane 30 mg/kg/day, nude mice) | T/C (%) [1] | GC (%) [1] | RTV (mean ± standard deviation) [1] | vs. control [1]
Nc1ccn([C@@H]2S[C@H](CO)[C@@H](O)[C@@H]2F)c(=O)n1 [Compound A, 1-(2-deoxy-2-fluoro-4-thio-β-D-arabinofuranosyl)cytosine] | potent anti-tumor activity | significantly enhanced the anti-tumor effect of Abraxane | 32.2% | 9.6% | 1.29 ± 0.59 | *
Nc1ccn([C@@H]2O[C@H](CO)[C@@H](O)C2(F)F)c(=O)n1 [Gem, gemcitabine, reference compound] | – | – | 68.3% | 57.8% | 2.74 ± 0.41 | *
